# In patent publication US11028087B2, “2,6-disubstituted-9-cyclopentyl-9H-purines, use thereof as medicaments, and pharmaceutical compositions” (UNIVERZITA PALACKEHO V OLOMOUCI, priority 2017, dated 2021):
# What was measured:
# [1] = tested on: EOL-1 (eosinophilic leukaemia, carrying the fusion FIP1L1-PDGFRA); test: Calcein AM cytotoxicity assay; type: cell-based; details: Homo sapiens, EOL1, 72 h; EOL-1; Calcein AM, three days; read-out: EC50 values (μM) EOL-1
# Text: (§1) Cytotoxicity of the compounds is the major property determining their anticancer effect in vivo. One of the parameters used, as the basis for cytotoxicity assays, is the integrity of cytoplasmic membrane of viable cells. For example, a microtiter assay, which uses acetomethoxy derivate of calcein (Calcein AM), is widely used for evaluation of cell proliferation and cytotoxicity. This assay is used in drug screening programs and in chemosensitivity testing. Intracellular esterases of viable cells convert calcein AM to green-fluorescent calcein of which signal corresponds to the number of viable cells in the culture.
# (§2) We have been using the following cell lines: MV4-11 (acute myeloid leukemia, FLT3-ITD positive), MOLM-13 (acute myeloid leukemia, FLT3-ITD positive), THP-1 (acute myeloid leukemia, wt FLT3), U937 (monocytic leukemia, wt FLT3), EOL-1 (eosinophilic leukaemia, carrying the fusion FIP1L1-PDGFRA), H1703 (non-small cell lung carcinoma, PDGFRA amplification). […] K562 and MCF-7 cell lines were maintained in DMEM supplemented with 10% fetal bovine serum, penicilin (100 U/ml) and streptomycin (100 μg/ml). All cell lines were cultivated at 37° C. in 5% CO2. For cytotoxicity assays, cells were seeded in appropriate densities into 96 well plates and the next day tested compounds were added at various concentrations in triplicates. Three days after drug addition, Calcein AM solution (final concentration 1 μg/ml; Thermo Scientific, USA) was added into each well and incubated for 1 h.
# [2] = tested on: MV4-11 (acute myeloid leukemia, FLT3-ITD positive); test: Calcein AM cytotoxicity assay; type: cell-based; details: Homo sapiens, 72 h; MV4-11; Calcein AM, three days after drug addition; read-out: EC50 values (μM) MV4-11
# Text: as §1, §2
# [3] = target: T1, CDK2/Cyclin E (Homo sapiens, UniProt P24941); test: Kinase inhibition assay with [γ-33P]ATP; type: biochemical; details: histone H1, 15 μM ATP; read-out: IC50 values (μM) CDK2
# T1 construct: made in house; host or cells: Sf9 insect cells, baculoviral infection
# Method: (§3) CDK1/Cyclin B and CDK2/Cyclin E kinases were produced in Sf9 insect cells via baculoviral infection and purified on a NiNTA column (Qiagen). CDK5/p35 and CDK7Cyclin H/MAT1, FLT3 WT, FLT3-ITD and FLT3 D835 were purchased from ProQinase GmbH. The kinase reactions were assayed with 1 mg/mL histone H1 (for CDK1, CDK2 and CDK5), (YSPTSPS)2KK peptide (for CDK7) or AGLT substrate (for FLT3) in the presence of 15/15/0.15/1.5/1 μM ATP (for CDK1/CDK2/CDK5/CDK7/FLT3), 0.05 μCi [γ-^33P]ATP and of the test compound in a final volume of 10 μL, all in a reaction buffer (60 mM HEPES-NaOH, pH 7.5, 3 mM MgCl2, 3 mM MnCl2, 3 μM Na-orthovanadate, 1.2 mM DTT, 2.5 μg/50 μl PEG20,000). The reactions were stopped by adding 5 μL of 3% aq H3PO4. Aliquots were spotted onto P-81 phosphocellulose (Whatman), washed 3× with 0.5% aq H3PO4 and finally air-dried.
# [4] = tested on: U937 (monocytic leukemia, wt FLT3); test: Calcein AM cytotoxicity assay; type: cell-based; details: Homo sapiens, U-937, 72 h; U937; Calcein AM, three days; read-out: EC50 values (μM) U937
# Text: as §1, §2
# [5] = tested on: MCF-7; test: Calcein AM cytotoxicity assay; type: cell-based; details: Homo sapiens, MCF7, 72 h; MCF-7; Calcein AM, three days; read-out: EC50 values (μM) MCF-7
# Text: as §1, §2
# [6] = tested on: MOLM-13 (acute myeloid leukemia, FLT3-ITD positive); test: Calcein AM cytotoxicity assay; type: cell-based; details: Homo sapiens, 72 h; MOLM-13; Calcein AM, three days; read-out: EC50 values (μM) MOLM-13
# Text: as §1, §2
# [7] = tested on: THP-1 (acute myeloid leukemia, wt FLT3); test: Calcein AM cytotoxicity assay; type: cell-based; details: Homo sapiens, 72 h; THP-1; Calcein AM, three days; read-out: EC50 values (μM) THP-1
# Text: as §1, §2
# [8] = tested on: K562; test: Calcein AM cytotoxicity assay; type: cell-based; details: Homo sapiens, 72 h; K562; Calcein AM, three days; read-out: EC50 values (μM) K562
# Text: as §1, §2
# [9] = tested on: Kasumi-1 (acute myeloid leukemia, KIT mutation Asn822Lys); test: Calcein AM cytotoxicity assay; type: cell-based; details: Homo sapiens, 72 h; Kasumi-1; Calcein AM, three days; read-out: EC50 values (μM) Kasumi-1
# Text: as §1
# We have been using the following cell lines: MV4-11 (acute myeloid leukemia, FLT3-ITD positive), MOLM-13 (acute myeloid leukemia, FLT3-ITD positive), THP-1 (acute myeloid leukemia, wt FLT3), U937 (monocytic leukemia, wt FLT3), EOL-1 (eosinophilic leukaemia, carrying the fusion FIP1L1-PDGFRA), H1703 (non-small cell lung carcinoma, PDGFRA amplification). They were maintained in RPMI-1640 supplemented with 10% fetal bovine serum, penicillin (100 U/ml) and streptomycin (100 μg/ml). Kasumi-1 (acute myeloid leukemia, KIT mutation Asn822Lys) cells were cultivated in RPMI-1640 supplemented with 15% fetal bovine serum, penicillin (100 U/ml) and streptomycin (100 μg/ml). K562 and MCF-7 cell lines were maintained in DMEM supplemented with 10% fetal bovine serum, penicilin (100 U/ml) and streptomycin (100 μg/ml). All cell lines were cultivated at 37° C. in 5% CO2. For cytotoxicity assays, cells were seeded in appropriate densities into 96 well plates and the next day tested compounds were added at various concentrations in triplicates. Three days after drug addition, Calcein AM solution (final concentration 1 μg/ml; Thermo Scientific, USA) was added into each well and incubated for 1 h. After this incubation period, fluorescence of the live cells was measured at 485 nm/538 nm (ex/em) with a Fluoroskan Ascent microplate reader (Labsystems).
# [10] = target: T2, FLT3 WT (Homo sapiens, UniProt P36888); test: Kinase inhibition assay with [γ-33P]ATP; type: biochemical; details: AGLT substrate, 1 μM ATP
# T2 construct: purchased ProQinase GmbH
# T2 sequence (P36888 27-993): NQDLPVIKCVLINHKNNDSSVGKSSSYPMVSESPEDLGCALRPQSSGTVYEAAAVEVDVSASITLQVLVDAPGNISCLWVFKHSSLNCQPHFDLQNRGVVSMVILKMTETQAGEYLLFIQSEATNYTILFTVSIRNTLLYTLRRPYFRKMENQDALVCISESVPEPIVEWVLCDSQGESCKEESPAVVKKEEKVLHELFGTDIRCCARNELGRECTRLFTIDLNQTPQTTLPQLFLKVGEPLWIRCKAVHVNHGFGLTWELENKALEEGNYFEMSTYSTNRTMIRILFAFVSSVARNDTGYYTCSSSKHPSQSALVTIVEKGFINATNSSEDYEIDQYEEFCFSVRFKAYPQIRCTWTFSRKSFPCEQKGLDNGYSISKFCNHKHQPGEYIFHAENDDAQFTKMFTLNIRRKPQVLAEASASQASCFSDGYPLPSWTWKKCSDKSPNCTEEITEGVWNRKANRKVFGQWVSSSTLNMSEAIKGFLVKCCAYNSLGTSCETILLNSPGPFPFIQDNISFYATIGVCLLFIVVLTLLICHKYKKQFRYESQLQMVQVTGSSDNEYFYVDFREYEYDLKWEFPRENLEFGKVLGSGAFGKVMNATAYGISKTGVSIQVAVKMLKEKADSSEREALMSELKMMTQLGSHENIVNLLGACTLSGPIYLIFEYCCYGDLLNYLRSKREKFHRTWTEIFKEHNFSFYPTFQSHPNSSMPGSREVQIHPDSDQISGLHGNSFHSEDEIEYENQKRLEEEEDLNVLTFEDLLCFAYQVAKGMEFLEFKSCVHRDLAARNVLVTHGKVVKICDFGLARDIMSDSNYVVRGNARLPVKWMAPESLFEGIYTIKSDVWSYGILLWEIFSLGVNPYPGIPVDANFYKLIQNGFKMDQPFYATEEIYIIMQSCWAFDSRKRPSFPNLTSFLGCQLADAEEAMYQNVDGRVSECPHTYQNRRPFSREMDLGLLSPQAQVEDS
# Method: as §3
SMILES,IC50 [3] [µM],IC50 [10] [µM],EC50 [1] [µM],EC50 [2] [µM],EC50 [4] [µM],EC50 [5] [µM],EC50 [6] [µM],EC50 [7] [µM],EC50 [8] [µM],EC50 [9] [µM]
c1cc(N2CCOCC2)ncc1Nc1nc(N2CCOCC2)nc2c1ncn2C1CCCC1 [Compound 46],0.951,–,0.377,0.02,–,–,–,–,–,–
CN1CCN(c2nc(Nc3ccc(N4CCNCC4)nc3)c3ncn(C4CCCC4)c3n2)CC1 [Compound 58],–,–,0.056,0.017,0.794,0.44,0.017,1.13,0.695,0.492
NC(=O)CCNc1nc(Nc2ccc(C(=O)N3CCOCC3)nc2)c2ncn(C3CCCC3)c2n1 [Compound 149],–,–,–,0.007,–,0.688,–,–,1.17,1.01
CN(C)CCCCNc1nc(Nc2ccc(C(=O)N3CCOCC3)cc2)c2ncn(C3CCCC3)c2n1 [Compound 182],0.005,0.013,0.04,0.002,0.631,1.59,0.017,1.5,4.21,1.68
CN(C)CCCCNc1nc(Nc2ccc(N3CCOCC3)nc2)c2ncn(C3CCCC3)c2n1 [Compound 183],–,–,0.014,0.0005,0.4,0.665,0.005,0.36,0.98,0.183
CN1CC2(C1)CN(Cc1ccc(Nc3nc(NCC(O)CN)nc4c3ncn4C3CCCC3)cc1)C2 (stereo not shown) [Compound 199],0.005,0.013,–,0.011,1,0.67,0.043,0.925,1.36,0.227
NC1CCC(Nc2nc(Nc3ccc(N4CCOCC4)nc3)c3ncn(C4CCCC4)c3n2)CC1 (stereo not shown) [Compound 269],0.008,–,0.01,0.004,1.49,0.96,–,–,1.35,–
c1cc(Nc2nc(N3CCCCC3)nc3c2ncn3C2CCCC2)ccc1CN1CCOCC1 [Compound 271],1.98,0.073,1.37,0.701,7.62,12.3,0.431,> 10,8.28,2.16
OCCNc1nc(Nc2ccc(CN3CCOCC3)cc2)c2ncn(C3CCCC3)c2n1 [Compound 274],1.17,–,0.503,0.074,–,–,–,–,–,–

# More lines, main results first:
IC50 [3] [µM],IC50 [10] [µM],SMILES,EC50 [1] [µM],EC50 [2] [µM],EC50 [4] [µM],EC50 [5] [µM],EC50 [6] [µM],EC50 [7] [µM],EC50 [8] [µM],EC50 [9] [µM]
0.028,0.021,CCN1CCN(C(=O)c2ccc(Nc3nc(N4CCN(C)CC4)nc4c3ncn4C3CCCC3)cn2)CC1 [Compound 60],–,–,–,–,–,–,–,–
2.6,–,CCN1CCN(C(=O)c2ccc(Nc3nc(NCCCC(N)=O)nc4c3ncn4C3CCCC3)cn2)CC1 [Compound 155],–,0.164,–,4.71,–,–,5.17,–
0.006,–,NC(=O)CCCCNc1nc(Nc2ccc(N3CC4(CNC4)C3)cc2)c2ncn(C3CCCC3)c2n1 [Compound 156],–,0.001,–,0.697,–,–,0.84,–
16.4,–,CN(C)CCCNc1nc(Nc2ccc(N3CCN(C)CC3)cc2)c2ncn(C3CCCC3)c2n1 [Compound 174],–,–,–,–,–,–,–,–
0.003,0.02,CN(C)CCCCNc1nc(Nc2ccc(C(=O)N3CCN(C)CC3)nc2)c2ncn(C3CCCC3)c2n1 [Compound 185],–,–,–,–,–,–,–,–
3.01,–,OCCCNc1nc(Nc2ccc(CN3CCOCC3)cc2)c2ncn(C3CCCC3)c2n1 [Compound 275],0.73,0.066,–,–,–,–,–,–
1.8,–,OCCCCNc1nc(Nc2ccc(CN3CCOCC3)cc2)c2ncn(C3CCCC3)c2n1 [Compound 276],–,0.029,–,–,–,–,–,–
